Where two headings read alike, the source gives them in different places.
Tests used:
Type in all cases: in vivo
[1] = tested on: Yellow Fever Mosquito (Aedes aegypti); test: whole plant or invertebrate; conditions: 48 h, freshly hatched larvae in tap water, 2 days, in comparison with untreated controls, read-out: mortality (larval)
How it was run: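 Freshly hatched A. aegypti larvae, 5–15 per well, were held in 200 μl tap water. Compounds formulated in 75:25 water:DMSO were sprayed at various concentrations, 2.5 μl per well by micro-atomizer, in two replicates.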

[2] = tested on: Silverleaf Whitefly (Bemisia argentifoli); test: B.5 Silverleaf Whitefly (Bemisia argentifoli), sprayed cotton plants; conditions: 72 h, whitefly adults on sprayed cotton plants, 3 days after treatment, in comparison with untreated controls
Method: B.5 Silverleaf Whitefly (Bemisia argentifoli)
(§1) The active compounds were formulated by a Tecan liquid handler in 100% cyclohexanone as a 10,000 ppm solution supplied in tubes. The 10,000 ppm solution was serially diluted in 100% cyclohexanone to make interim solutions. These served as stock solutions for which final dilutions were made by the Tecan in 50% acetone:50% water (v/v) into 5 or 10 ml glass vials. A nonionic surfactant (Kinetic®) was included in the solution at a volume of 0.01% (v/v). The vials were then inserted into an automated electrostatic sprayer equipped with an atomizing nozzle for application to plants/insects.
Cotton plants at the cotyledon stage (one plant per pot) were sprayed by an automated electrostatic plant sprayer equipped with an atomizing spray nozzle. The plants were dried in the sprayer fume hood and then removed from the sprayer. Each pot was placed into a plastic cup and about 10 to 12 whitefly adults (approximately 3-5 days old) were introduced. The insects were collected using an aspirator and a nontoxic Tygon® tubing connected to a barrier pipette tip. The tip, containing the collected insects, was then gently inserted into the soil containing the treated plant, allowing insects to crawl out of the tip to reach the foliage for feeding. Cups were covered with a reusable screened lid. Test plants were maintained in a growth room at about 25° C. and about 20-40% relative humidity for 3 days, avoiding direct exposure to fluorescent light (24 hour photoperiod) to prevent trapping of heat inside the cup. Mortality was assessed 3 days after treatment, compared to untreated control plants.

[3] = tested on: Mediterranean Fruitfly (Ceratitis capitata); test: B.6 Mediterranean Fruitfly (Ceratitis capitata), microtiter plate insect diet; conditions: 120 h, read-out: mortality (egg and larval)
How it was run: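 Insect diet with 50-80 C. capitata eggs sprayed with compounds formulated in 75% water/25% DMSO, at different concentrations, two replications. Incubation at about 28±1° C and 80±5% relative humidity for 5 days, then egg and larval mortality assessed visually.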

[4] = tested on: Boll Weevil (Anthonomus grandis); test: B.3 Boll Weevil (Anthonomus grandis), microtiter plate insect diet; conditions: 120 h, read-out: mortality (egg and larval)
How it was run: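 Compounds in 25% DMSO/water sprayed at several concentrations onto insect diet in microtiter wells holding 5–10 A. grandis eggs, two replicates. Plates kept 5 days at about 25±1 °C and 75±5% RH. Egg and larval mortality scored visually.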

[5] = tested on: Diamond Back Moth (Plutella xylostella); test: B.1 Diamond Back Moth (Plutella xylostella), cabbage leaf dip; conditions: foliar
How it was run: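 Cabbage leaves dipped in compound in 1:1 water:acetone with 0.01% Kinetic HV surfactant, air-dried, then infested with ten 3rd-instar larvae on moist filter paper. Mortality scored at 72 h after treatment; feeding damage rated on a 0-100% scale.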

[6] = tested on: Orchid thrips (dichromothrips corbetti); test: B.12 Orchid thrips (dichromothrips corbetti), floral-immersion technique; conditions: adult thrips on dipped orchid petals, 72 hours after treatment, in comparison with untreated controls
How it was run: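 Whole orchid flower petals were dipped in compound in 1:1 acetone:water with 0.01% v/v Kinetic HV, dried, and enclosed with about 20 adult thrips. They were held under continuous light at about 28° C. Live thrips were counted and percent mortality recorded at 72 hours.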

[7] = tested on: Vetch Aphid (Megoura viciae); test: B.8 Vetch Aphid (Megoura viciae), broad bean leaf disks; conditions: foliar, 120 h
Method: B.8 Vetch Aphid (Megoura viciae)
For evaluating control of vetch aphid (Megoura viciae) through contact or systemic means the test unit consisted of 24-well-microtiter plates containing broad bean leaf disks.
The compounds were formulated using a solution containing 75% v/v water and 25% v/v DMSO. Different concentrations of formulated compounds were sprayed onto the leaf disks at 2.5 μl, using a custom built micro atomizer, at two replications.
After application, the leaf disks were air-dried and 5-8 adult aphids placed on the leaf disks inside the microtiter plate wells. The aphids were then allowed to suck on the treated leaf disks and incubated at about 23±1° C. and about 50±5% relative humidity for 5 days. Aphid mortality and fecundity was then visually assessed.

[8] = tested on: Southern Armyworm (Spodoptera eridania), 2nd Instar Larvae; test: B.10 Southern Armyworm (Spodoptera eridania), 2nd Instar Larvae, sprayed lima bean plants; conditions: 96 h
How it was run: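 Lima bean plants at 1st true leaf stage sprayed electrostatically with compound in 50% acetone:50% water plus 0.01% nonionic surfactant, then infested with about 10 to 11 2nd instar larvae. Mortality and reduced feeding assessed 4 days after treatment at about 25° C versus untreated plants.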

[9] = tested on: Tobacco Budworm (Heliothis virescens); test: B.7 Tobacco Budworm (Heliothis virescens) I, microtiter plate insect diet; conditions: 120 h, read-out: mortality (egg and larval)
How it was run: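 96-well plates with insect diet and 15-25 H. virescens eggs; compounds in 75% water/25% DMSO sprayed onto diet at several concentrations, two replicates. Plates held at about 28±1° C. and 80±5% relative humidity for 5 days, then egg and larval mortality scored visually.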

[10] = tested on: Cowpea Aphid (aphis craccivora); test: B.4 Cowpea Aphid (aphis craccivora), sprayed potted cowpea plants; conditions: after 72 hours, in comparison with untreated controls
Method: B.4 Cowpea Aphid (aphis craccivora)
The active compound is dissolved at the desired concentration in a mixture of 1:1 (vol:vol) distilled water:acetone. Surfactant (Kinetic HV) is added at a rate of 0.01% (vol/vol). The test solution is prepared at the day of use.
Potted cowpea plants were colonized with approximately 50-100 aphids of various stages by manually transferring a leaf tissue cut from infested plant 24 hours before application. Plants were sprayed after the pest population has been recorded. Treated plants are maintained on light carts at about 28° C. Percent mortality was assessed after 72 hours.

[11] = tested on: Green Peach Aphid (Myzus persicae); test: B.9 Green Peach Aphid (Myzus persicae), sprayed bell pepper plants; conditions: 120 h, infested bell pepper plants sprayed, after 5 days, in comparison with untreated controls
Method: B.9 Green Peach Aphid (Myzus persicae)
as §1, with “in 100% cyclohexa none as a” for “in 100% cyclohexanone as a”
Bell pepper plants at the first true-leaf stage were infested prior to treatment by placing heavily infested leaves from the main colony on top of the treatment plants. Aphids were allowed to transfer overnight to accomplish an infestation of 30-50 aphids per plant and the host leaves were removed. The infested plants were then sprayed by an automated electrostatic plant sprayer equipped with an atomizing spray nozzle. The plants were dried in the sprayer fume hood, removed, and then maintained in a growth room under fluorescent lighting in a 24-hr photoperiod at about 25° C. and about 20-40% relative humidity. Aphid mortality on the treated plants, relative to mortality on untreated control plants, was determined after 5 days.

[12] = 800 ppm, sprayed onto insect diet, 5 days, in comparison with untreated controls
[13] = 500 ppm, 3rd instar larvae on dipped cabbage leaves, 72 hours after treatment, in comparison with untreated controls, read-out: mortality
[14] = 2500 ppm, adult aphids on sprayed leaf disks, 5 days, in comparison with untreated controls, read-out: mortality
[15] = 300 ppm, larvae on sprayed lima bean plants, 4 days after treatment, in comparison with untreated controls, read-out: mortality

CC(C)c1ccccc1N1CCSC1=N/N=C/c1ccc2c(ccc3c2ncn3-c2ccc(OC(F)(F)F)cc2)c1 (stereo in doubt) [C-53, (E)-3-(2-isopropylphenyl)-N-[(E)-[3-[4-(trifluoromethoxy)phenyl]benzo[e]benzimidazol-7-yl]methyleneamino] thiazolidin-2-imine]
≥ 75%: mortality at 800 ppm [1] | mortality at 300 ppm [2] | mortality at 800 ppm [3, 12] | mortality at 800 ppm [4, 12] | mortality at 500 ppm [5, 13] | mortality at 500 ppm [6] | mortality at 2500 ppm [7, 14] | mortality at 300 ppm [8, 15] | mortality at 800 ppm [9, 12]

Fc1ccc(NC(=S)N/N=C/c2ccc3c(ccc4c3ncn4-c3ccc(OC(F)(F)F)cc3)c2)c(F)c1 [C-5, 1-(2,4-difluorophenyl)-3-[(E)-[3-[4-(trifluoromethoxy)phenyl]benzo[e]benzimidazol-7-yl]methyleneamino] thiourea]
≥ 75%: mortality at 800 ppm [3, 12] | mortality at 800 ppm [4, 12] | mortality at 500 ppm [5, 13] | mortality at 2500 ppm [7, 14] | mortality at 800 ppm [9, 12]

FC(F)(F)Oc1ccc(-c2onc3c2CCc2cc(/C=N/NC(=S)Nc4cc(C(F)(F)F)ccc4Cl)ccc2-3)cc1 [C-18, 1-[2-chloro-5-(trifluoromethyl)phenyl]-3-[(E)-[3-[4-(trifluoromethoxy)phenyl]-4,5-dihydrobenzo[g][2,1]benzoxazol-7-yl]methyleneamino]thiourea]
≥ 75%: mortality at 2500 ppm [7, 14]

Cc1ccccc1NC(=S)N/N=C/c1ccc2c(c1)CCc1c-2nnn1-c1ccc(OC(F)(F)F)cc1 [C-34, 1-(o-tolyl)-3-[[3-[4-(trifluoromethoxy)phenyl]-5,8-dihydro-4H-benzo[e]benzotriazol-7-ylidene]methylimino] thiourea]
≥ 75%: mortality at 800 ppm [3, 12] | mortality at 500 ppm [10]

O=[N+]([O-])c1ccccc1NC(=S)N/N=C/c1ccc2c(c1)CCc1c-2nnn1-c1ccc(OC(F)(F)F)cc1 [C-43, 1-(2-nitrophenyl)-3-[[3-[4-(trifluoromethoxy)phenyl]-5,6-dihydro-4H-benzo[e]benzotriazol-7-ylidene]methylimino]thiourea]
≥ 75%: mortality at 800 ppm [11] | mortality at 2500 ppm [7, 14]

CC(OC(=O)Nc1ccc2c(ccc3c2ncn3-c2ccc(OC(F)(F)F)cc2)c1)c1ccc(Cl)cn1 (stereo not shown) [C-56, 1-(5-chloro-2-pyridyl)ethyl N-[3-[4-(trifluoromethoxy)phenyl]benzo[e]benzimidazol-7-yl]carbamate]
≥ 75%: mortality at 800 ppm [1] | mortality at 800 ppm [3] | mortality at 800 ppm [4] | mortality at 500 ppm ([5]; 72 h) | mortality at 2500 ppm [7] | mortality at 300 ppm [8] | mortality at 800 ppm [9]

CCc1cccc(C)c1NC(=S)N/N=C/c1ccc2c(ccc3c2ncn3-c2ccc(SC(F)(F)F)cc2)c1 [C-76, 1-(2-ethyl-6-methyl-phenyl)-3-[(E)-[3-[4-(trifluoromethylsulfanyl)phenyl]benzo[e]benzimidazol-7-yl]methyleneamino]thiourea]
≥ 75%: mortality at 800 ppm [1] | mortality at 300 ppm [2] | mortality at 800 ppm [11] | mortality at 800 ppm [3, 12] | mortality at 800 ppm [4, 12] | mortality at 500 ppm [5, 13] | mortality at 500 ppm [6] | mortality at 300 ppm [8, 15] | mortality at 800 ppm [9, 12]

Cc1cccc(Cl)c1NC(=S)N/N=C/c1ccc2c(ccc3c2ncn3-c2ccc(C(F)(F)F)cc2)c1 [C-77, 1-(2-chloro-6-methyl-phenyl)-3-[(E)-[3-[4-(trifluoromethyl)phenyl]benzo[e]benzimidazol-7-yl]methyleneamino] thiourea]
≥ 75%: mortality at 800 ppm [1] | mortality at 300 ppm [2] | mortality at 800 ppm [11] | mortality at 800 ppm [3, 12] | mortality at 800 ppm [4, 12] | mortality at 500 ppm [5, 13] | mortality at 500 ppm [6] | mortality at 300 ppm [8, 15] | mortality at 800 ppm [9, 12]

Cc1cccc(C)c1NC(=S)N/N=C/c1ccc2c(ccc3c2ncn3-c2ccc(C(F)(F)F)cc2)c1 [C-86, 1-(2,6-dimethylphenyl)-3-[(E)-[3-[4-(trifluoromethyl)phenyl]benzo[e]benzimidazol-7-yl]methyleneamino]thiourea]
≥ 75%: mortality at 800 ppm [1] | mortality at 800 ppm [11] | mortality at 800 ppm [3, 12] | mortality at 800 ppm [4, 12] | mortality at 500 ppm [5, 13] | mortality at 500 ppm [6] | mortality at 2500 ppm [7, 14] | mortality at 300 ppm [8, 15] | mortality at 800 ppm [9, 12]

Cc1ccccc1NC(=S)N(C)/N=C/c1ccc2c(ccc3c2ncn3-c2ccc(OC(F)(F)F)cc2)c1 [C-87, 1-methyl-3-(o-tolyl)-1-[(E)-[3-[4-(trifluoromethoxy)phenyl]benzo[e]benzimidazol-7-yl]methyleneamino]thiourea]
≥ 75%: mortality at 800 ppm [1] | mortality at 800 ppm [3, 12] | mortality at 500 ppm [10] | mortality at 800 ppm [4, 12] | mortality at 500 ppm [5, 13]

Cc1ccc(-n2cnc3c4ccc(/C=N/NC(=S)Nc5c(C)cccc5C)cc4ccc32)cc1 [C-105, 1-(2,6-dimethylphenyl)-3-[(E)-[3-(p-tolyl)benzo[e]benzimidazol-7-yl]methyleneamino]thiourea]
≥ 75%: mortality at 800 ppm [3, 12] | mortality at 800 ppm [4, 12] | mortality at 2500 ppm [7, 14]

From patent US9497970B2, “Pesticide compounds” (priority 2013, dated 2016)
